Measurements: patent US12714691B2, “Method of treating triple-negative breast cancer” (THE UNITED STATES OF AMERICA, AS REPRESENTED BY THE …, priority 2018, dated 2026)

Legend:
NCI-60 cell lines = test: NCI-60 compound activity (z score of GI50, sulforhodamine B total protein assay, DTP); format: cell-based; details: for Activity (Z score) against breast cancer cell lines: 4 of 5 tested breast cancer cell lines (MCF7, HS578T, BT549, T47D); for Anticancer activity compared with all available (~178) FDA-approved drugs: HS 578T and BT-549 cell lines, FIG. 7B; for Activity (Z score) pattern against NCI-60 cell lines: certain breast cancer, colorectal cancer and ovarian cancer cell lines, FIG. 6; for Activity (Z score) against ovarian cancer cell lines: four of seven ovarian cancer cell lines (OVCAR-3, OVCAR-4, OVCAR-8, NCI-ADR-RES); for Effectiveness compared with 13 approved breast cancer drugs: triple negative breast cancer cell lines HS 578T and BT-549 (two of three NCI-60 TNBC lines), FIG. 7A; for Activity (Z score) against colorectal cell lines: two of seven colorectal cell lines (COLO205 and HCC2998)
Protocol: (§1) To determine reproducibility across institutes and assay types, we tested a selected set of NCI-60-screened compounds for activity in the GDSC cell line panel (Table 1). Drug data reproducibility may be affected by potential sources of data divergence such as assay type and duration for drug treatment. Noting that the GDSC and the NCI/DTP used different assays to determine their IC50 values (Cell Titer Glo measurements of ATP at 72 hours post-treatment versus sulforhodamine B measurement of total protein at 48 hours post-treatment), we compared 19 drugs referenced by their NSCs (National Service Center identifiers) and associated with a range of mechanisms of action types. The drugs with the strongest correlations were oxyphenisatin acetate (Acetalax) (FIG. 5a, R=0.80, p=1.1×10^−10, N=43) and bisacodyl (FIG. 5b, R=0.84, p=9.0×10^−13, N=44). These FDA-approved laxatives lacked pre-existing data in the CTRP, CCLE and GDSC.
Acetalax and bisacodyl activities against a number of NCI-60 cell lines were obtained.
NCI-60 drug activity, molecular profiling, and annotation data was obtained from CellMiner (Database Version 2.1). […] Detailed information about CellMiner data preparation is publically available for example, in Reinhold, W. C. et al., Cancer Res. 72:3499-3511 (2012), Reinhold, W. C. et al., Cancer Res. 77:601-612 (2017), Abaan, O. D. et al., Cancer Res. 73:4372-4382 (2013), and Varma, S. et al., PloS One 9: e92047 (2014), as well as being documented within CellMiner.
COMPOUND ACTIVITY. Compound activity is indicated as a standardized, ‘z-score’ value derived from measurement of the cell line-specific 50% growth-inhibitory (GIS0) concentration using the sulforhodamine B total protein cytotoxicity assay generated by the Developmental Therapeutics Program (dtp.cancer.gov). In particular, for each compound, the mean and standard deviation of −log 10 [molar GI50] values over the NCI-60 lines are used to center and scale the data.

GDSC cell line panel = GDSC cell line panel drug activity (IC50, Cell Titer Glo measurement of ATP); format: cell-based; details: GDSC triple negative breast cancer lines (21); p<7E-10
Protocol: as §1
In this work, the drugs were assessed in a different institution using a different assay using 1,080 cell lines, including 21 triple negative breast cancers (FIG. 8A, B). […]
DETERMINATION OF PROSPECTIVE TRIPLE NEGATIVE BREAST CANCERS. Transcript expression levels of ERBB2, ESR1, ESR2 and PGR (HER2, estrogen receptor and progesterone receptor) were assessed by GDSC using the Affymetrix Human Genome U219 Array and accessed in CellMinerCDB. […]

| SMILES | Activity (Z score) against breast cancer cell lines (NCI-60 cell lines) | Anticancer activity compared with all available (~178) FDA-approved drugs (NCI-60 cell lines) | Activity (Z score) pattern against NCI-60 cell lines (NCI-60 cell lines) | Activity (Z score) against ovarian cancer cell lines (NCI-60 cell lines) | Effectiveness compared with 13 approved breast cancer drugs (NCI-60 cell lines) | Activity (Z score) against colorectal cell lines (NCI-60 cell lines) | Activity compared with the oncology drugs tested (GDSC cell line panel) |
| --- | --- | --- | --- | --- | --- | --- | --- |
| CC(=O)Oc1ccc(C2(c3ccc(OC(C)=O)cc3)C(=O)Nc3ccccc32)cc1 [Oxyphenisatin acetate (Acetalax), Oxyphenisatin acetate] | robust activity | superior anticancer activity | strong efficacy | robust activity | more effective | robust activity | more active than any of the oncology drugs |
| CC(=O)Oc1ccc(C(c2ccc(OC(C)=O)cc2)c2ccccn2)cc1 [Bisacodyl] | robust activity | superior anticancer activity | strong efficacy | robust activity | more effective | robust activity | more active than any of the oncology drugs |
